In patent publication US9540392B2, “Thienopyrimidines” (BAYER PHARMA AKTIENGESELLSCHAFT, priority 2012, dated 2017):

Target: T1, human full-length MKNK1 (Homo sapiens, UniProt Q9BUB5, T385D)
T1 construct: GST (N); purchased Carna Biosciences 02-145; host or cells: insect cells (baculovirus expression system)
Test: MKNK1 kinase high ATP assay (TR-FRET)
Type: biochemical
Conditions: 2 mM ATP, after preincubation with MKNK1; read-out: MKNK1 IC50 (MKNK1 high ATP)
Summary of the method: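 Compound was preincubated 15 min at 22° C. with MKNK1 in 50 mM HEPES pH 7.5, 5 mM MgCl2, 1.0 mM DTT, then the reaction ran 30 min at 22° C. with 2 mM ATP and 0.06 μM biotinylated peptide (final).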

T1 sequence (Q9BUB5 1-424 isoform Q9BUB5-2 T344D): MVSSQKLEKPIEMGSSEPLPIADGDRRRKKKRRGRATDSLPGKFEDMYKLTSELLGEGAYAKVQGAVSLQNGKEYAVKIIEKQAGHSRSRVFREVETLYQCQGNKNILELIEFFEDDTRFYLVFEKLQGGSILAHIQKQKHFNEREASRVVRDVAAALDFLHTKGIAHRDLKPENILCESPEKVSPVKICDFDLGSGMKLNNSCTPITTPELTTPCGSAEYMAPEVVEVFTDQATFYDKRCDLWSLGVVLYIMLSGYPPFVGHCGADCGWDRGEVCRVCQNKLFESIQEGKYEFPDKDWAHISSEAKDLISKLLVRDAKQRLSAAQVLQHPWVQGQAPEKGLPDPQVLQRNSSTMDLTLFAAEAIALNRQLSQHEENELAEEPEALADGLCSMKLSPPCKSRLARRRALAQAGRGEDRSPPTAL

Row | IC50 [nM] | Structure (SMILES)
1 | 8 | CC(=O)N[C@@H]1CCN(C(=O)C2CCc3c(sc4ncnc(Nc5ccc6[nH]ncc6c5)c34)C2)C1 (mixture of isomers) [Example 124, (RS)-N-(1-{[4-(1H-indazol-5-ylamino)-5,6,7,8-tetrahydro[1]benzothieno[2,3-d]pyrimidin-7-yl]carbonyl}pyrrolidin-3-yl)acetamide]
2 | 10.5 | O=C(NCCN1CCNC1=O)C1CCc2c(sc3ncnc(Nc4ccc5[nH]ncc5c4)c23)C1 (racemic) [Example 125, (RS)-4-(1H-indazol-5-ylamino)-N-[2-(2-oxoimidazolidin-1-yl)ethyl]-5,6,7,8-tetrahydro[1]benzothieno[2,3-d]pyrimidine-7-carboxamide]
3 | 14.8 | CN(C)C(=O)N1CCN(C(=O)C2CCc3c(sc4ncnc(Nc5ccc6[nH]ncc6c5)c34)C2)CC1 (racemic) [Example 126, (RS)-4-{[4-(1H-indazol-5-ylamino)-5,6,7,8-tetrahydro[1]benzothieno[2,3-d]pyrimidin-7-yl]carbonyl}-N,N-dimethylpiperazine-1-carboxamide]
4 | 10.7 | O=C(C1CCc2c(sc3ncnc(Nc4ccc5[nH]ncc5c4)c23)C1)N1CCC(c2ccccc2)CC1 (racemic) [Example 127, (RS)-[4-(1H-indazol-5-ylamino)-5,6,7,8-tetrahydro[1]benzothieno[2,3-d]pyrimidin-7-yl](4-phenylpiperidin-1-yl)methanone]
5 | 15 | O=C(Nc1ccnnc1)C1CCc2c(sc3ncnc(Nc4ccc5[nH]ncc5c4)c23)C1 (racemic) [Example 128, (RS)-4-(1H-indazol-5-ylamino)-N-(pyridazin-4-yl)-5,6,7,8-tetrahydro[1]benzothieno[2,3-d]pyrimidine-7-carboxamide]
6 | 7.7 | CN(C)CCN1CCN(C(=O)C2CCc3c(sc4ncnc(Nc5ccc6[nH]ncc6c5)c34)C2)CC1 (racemic) [Example 129, (RS)-{4-[2-(dimethylamino)ethyl]piperazin-1-yl}[4-(1H-indazol-5-ylamino)-5,6,7,8-tetrahydro[1]benzothieno[2,3-d]pyrimidin-7-yl]methanone]
7 | 9.5 | COCCN(C)C(=O)C1CCc2c(sc3ncnc(Nc4ccc5[nH]ncc5c4)c23)C1 (racemic) [Example 130, (RS)-4-(1H-indazol-5-ylamino)-N-(2-methoxyethyl)-N-methyl-5,6,7,8-tetrahydro[1]benzothieno[2,3-d]pyrimidine-7-carboxamide]
8 | 13.5 | O=C(C1CCc2c(sc3ncnc(Nc4ccc5[nH]ncc5c4)c23)C1)N1CCN(C2CCCC2)CC1 (racemic) [Example 131, (RS)-(4-cyclopentylpiperazin-1-yl)[4-(1H-indazol-5-ylamino)-5,6,7,8-tetrahydro[1]benzothieno[2,3-d]pyrimidin-7-yl]methanone]
9 | 10.3 | O=C(C1CCc2c(sc3ncnc(Nc4ccc5[nH]ncc5c4)c23)C1)N1CCC(CO)CC1 (racemic) [Example 132, (RS)-[4-(hydroxymethyl)piperidin-1-yl][4-(1H-indazol-5-ylamino)-5,6,7,8-tetrahydro[1]benzothieno[2,3-d]pyrimidin-7-yl]methanone]
10 | 21.4 | COCCN1CCN(C(=O)C2CCc3c(sc4ncnc(Nc5ccc6[nH]ncc6c5)c34)C2)CC1 (racemic) [Example 133, (RS)-[4-(1H-indazol-5-ylamino)-5,6,7,8-tetrahydro[1]benzothieno[2,3-d]pyrimidin-7-yl][4-(2-methoxyethyl)piperazin-1-yl]methanone]
11 | 12.7 | O=C(C1CCc2c(sc3ncnc(Nc4ccc5[nH]ncc5c4)c23)C1)N1CC[C@@H](O)C1 (mixture of isomers) [Example 134, (RS)-(3-hydroxypyrrolidin-1-yl)[4-(1H-indazol-5-ylamino)-5,6,7,8-tetrahydro[1]benzothieno[2,3-d]pyrimidin-7-yl]methanone]
12 | 7.6 | Cn1nccc1CNC(=O)C1CCc2c(sc3ncnc(Nc4ccc5[nH]ncc5c4)c23)C1 (racemic) [Example 136, (RS)-4-(1H-indazol-5-ylamino)-N-[(1-methyl-1H-pyrazol-5-yl)methyl]-5,6,7,8-tetrahydro[1]benzothieno[2,3-d]pyrimidine-7-carboxamide]
13 | 15.6 | CN(Cc1ccn(C)n1)C(=O)C1CCc2c(sc3ncnc(Nc4ccc5[nH]ncc5c4)c23)C1 (racemic) [Example 137, (RS)-4-(1H-indazol-5-ylamino)-N-methyl-N-[(1-methyl-1H-pyrazol-3-yl)methyl]-5,6,7,8-tetrahydro[1]benzothieno[2,3-d]pyrimidine-7-carboxamide]
14 | 12.6 | CN(Cc1ccnn1C)C(=O)C1CCc2c(sc3ncnc(Nc4ccc5[nH]ncc5c4)c23)C1 (racemic) [Example 138, (RS)-4-(1H-indazol-5-ylamino)-N-methyl-N-[(1-methyl-1H-pyrazol-5-yl)methyl]-5,6,7,8-tetrahydro[1]benzothieno[2,3-d]pyrimidine-7-carboxamide]
15 | 6.9 | O=C(NCc1cc[nH]n1)C1CCc2c(sc3ncnc(Nc4ccc5[nH]ncc5c4)c23)C1 (racemic) [Example 139, (RS)-4-(1H-indazol-5-ylamino)-N-(1H-pyrazol-3-ylmethyl)-5,6,7,8-tetrahydro[1]benzothieno[2,3-d]pyrimidine-7-carboxamide]
16 | 12.4 | Cn1ccc(NC(=O)C2CCc3c(sc4ncnc(Nc5ccc6[nH]ncc6c5)c34)C2)n1 (racemic) [Example 140, (RS)-4-(1H-indazol-5-ylamino)-N-(1-methyl-1H-pyrazol-3-yl)-5,6,7,8-tetrahydro[1]benzothieno[2,3-d]pyrimidine-7-carboxamide]
17 | 17.4 | N#Cc1ccc(N2CCN(C(=O)C3CCc4c(sc5ncnc(Nc6ccc7[nH]ncc7c6)c45)C3)CC2)cc1 (racemic) [Example 141, (RS)-4-(4-{[4-(1H-indazol-5-ylamino)-5,6,7,8-tetrahydro[1]benzothieno[2,3-d]pyrimidin-7-yl]carbonyl}piperazin-1-yl)benzonitrile]
18 | 22.4 | O=C(C1CCc2c(sc3ncnc(Nc4ccc5[nH]ncc5c4)c23)C1)N1CCN(Cc2ccncc2)CC1 (racemic) [Example 142, (RS)-[4-(1H-indazol-5-ylamino)-5,6,7,8-tetrahydro[1]benzothieno[2,3-d]pyrimidin-7-yl][4-(pyridin-4-ylmethyl)piperazin-1-yl]methanone]
19 | 19.5 | CN(C)C(=O)CN1CCN(C(=O)C2CCc3c(sc4ncnc(Nc5ccc6[nH]ncc6c5)c34)C2)CC1 (racemic) [Example 143, (RS)-2-(4-{[4-(1H-indazol-5-ylamino)-5,6,7,8-tetrahydro[1]benzothieno[2,3-d]pyrimidin-7-yl]carbonyl}piperazin-1-yl)-N,N-dimethylacetamide]
20 | 21.7 | CN1CCN(CCNC(=O)C2CCc3c(sc4ncnc(Nc5ccc6[nH]ncc6c5)c34)C2)CC1 (racemic) [Example 144, (RS)-4-(1H-indazol-5-ylamino)-N-[2-(4-methylpiperazin-1-yl)ethyl]-5,6,7,8-tetrahydro[1]benzothieno[2,3-d]pyrimidine-7-carboxamide]
21 | 4.9 | CN(Cc1cccc(F)c1)C(=O)C1CCc2c(sc3ncnc(Nc4ccc5[nH]ncc5c4)c23)C1 (racemic) [Example 145, (RS)-N-(3-fluorobenzyl)-4-(1H-indazol-5-ylamino)-N-methyl-5,6,7,8-tetrahydro[1]benzothieno[2,3-d]pyrimidine-7-carboxamide]
22 | 26.4 | Cn1cc(NC(=O)C2CCc3c(sc4ncnc(Nc5ccc6[nH]ncc6c5)c34)C2)cn1 (racemic) [Example 146, (RS)-4-(1H-indazol-5-ylamino)-N-(1-methyl-1H-pyrazol-4-yl)-5,6,7,8-tetrahydro[1]benzothieno[2,3-d]pyrimidine-7-carboxamide]
23 | 3.7 | O=C(NC1(c2ccccc2)CC1)C1CCc2c(sc3ncnc(Nc4ccc5[nH]ncc5c4)c23)C1 (racemic) [Example 147, (RS)-4-(1H-indazol-5-ylamino)-N-(1-phenylcyclopropyl)-5,6,7,8-tetrahydro[1]benzothieno[2,3-d]pyrimidine-7-carboxamide]
24 | 8.1 | Cc1cnc(CNC(=O)C2CCc3c(sc4ncnc(Nc5ccc6[nH]ncc6c5)c34)C2)cn1 (racemic) [Example 148, (RS)-4-(1H-indazol-5-ylamino)-N-[(5-methylpyrazin-2-yl)methyl]-5,6,7,8-tetrahydro[1]benzothieno[2,3-d]pyrimidine-7-carboxamide]
25 | 27.4 | O=C(Nc1cccnn1)C1CCc2c(sc3ncnc(Nc4ccc5[nH]ncc5c4)c23)C1 (racemic) [Example 149, (RS)-4-(1H-indazol-5-ylamino)-N-(pyridazin-3-yl)-5,6,7,8-tetrahydro[1]benzothieno[2,3-d]pyrimidine-7-carboxamide]
26 | 31.2 | O=C(Nc1cncnc1)C1CCc2c(sc3ncnc(Nc4ccc5[nH]ncc5c4)c23)C1 (racemic) [Example 150, (RS)-4-(1H-indazol-5-ylamino)-N-(pyrimidin-5-yl)-5,6,7,8-tetrahydro[1]benzothieno[2,3-d]pyrimidine-7-carboxamide]
27 | 3.2 | O=C(NCc1ccsc1)C1CCc2c(sc3ncnc(Nc4ccc5[nH]ncc5c4)c23)C1 (racemic) [Example 151, (RS)-4-(1H-indazol-5-ylamino)-N-(thiophen-3-ylmethyl)-5,6,7,8-tetrahydro[1]benzothieno[2,3-d]pyrimidine-7-carboxamide]
28 | 16.8 | Cn1cncc1CNC(=O)C1CCc2c(sc3ncnc(Nc4ccc5[nH]ncc5c4)c23)C1 (racemic) [Example 152, (RS)-4-(1H-indazol-5-ylamino)-N-[(1-methyl-1H-imidazol-5-yl)methyl]-5,6,7,8-tetrahydro[1]benzothieno[2,3-d]pyrimidine-7-carboxamide]
29 | 32.5 | COCCCN1CCN(C(=O)C2CCc3c(sc4ncnc(Nc5ccc6[nH]ncc6c5)c34)C2)CC1 (racemic) [Example 153, (RS)-[4-(1H-indazol-5-ylamino)-5,6,7,8-tetrahydro[1]benzothieno[2,3-d]pyrimidin-7-yl][4-(3-methoxypropyl)piperazin-1-yl]methanone]
